Laboratory results taken from patent EP1019392B1, “TRICYCLIC AMIDES USEFUL FOR INHIBITION OF G-PROTEIN FUNCTION AND FOR TREATMENT OF PROLIFERATIVE DISEASES” (SCHERING CORPORATION, priority 1995, dated 1997).

Each compound was assayed on Ras-CVLS processing in COS monkey kidney cells (assay: COS cell assay: inhibition of Ras-CVLS processing (Western blot)). Conditions: not given.
Format: cell-based

| Compound | IC50 |
| --- | --- |
| NC(=O)N1CCC(CC(=O)N2CCC(C3c4ccc(Cl)c(Br)c4CCc4cc(Br)cnc43)CC2)CC1 (single isomer, unassigned) [Example 13] | 420 nM |
| O=C(Cc1cc[n+]([O-])cc1)N1CCC(C2c3ccc(Cl)c(Br)c3CCc3cc(Br)cnc32)CC1 (single isomer, unassigned) [Example 14A] | 480 nM |

Same assay, conditions: Primates, COS

| Compound | IC50 |
| --- | --- |
| O=C(Cc1cc[n+]([O-])cc1)N1CCC(=C2c3ncc(Br)cc3CCc3cc(Cl)cc(Br)c32)CC1 (racemic) [Example 7] | < 250 nM |
| NC(=O)N1CCC(CC(=O)N2CCC(C3c4ncc(Br)cc4CCc4cc(Cl)cc(Cl)c43)CC2)CC1 (single isomer, unassigned) [Example 18] | 25 nM |
| O=C(Cc1cc[n+]([O-])cc1)N1CCC([C@H]2c3ncc(Br)cc3CCc3cc(Cl)cc(Br)c32)CC1 [Example 9] | 10 nM |
| O=C(Cc1cc[n+]([O-])cc1)N1CCN([C@H]2c3ncc(Br)cc3CCc3cc(Cl)cc(Br)c32)CC1 [Example 11A] | < 25 nM |
| O=C(Cc1cc[n+]([O-])cc1)N1CCN([C@@H]2c3ccc(Cl)cc3CCc3cc(Br)cnc32)CC1 [Example 16A] | 500 nM |
| O=C(Cc1cc[n+]([O-])cc1)N1CCN([C@H]2c3ccc(Cl)cc3CCc3cc(Br)cnc32)CC1 [Example 16B] | 125 nM |
